Results on 3 compounds are retold here after ChEMBL document CHEMBL4837249, “Discovery of Potent Antiallergic Agents Based on an o-Aminopyridinyl Alkynyl Scaffold” (J Med Chem, 2021).

Assay [1] has as its target Tyrosine-protein kinase Srms (Homo sapiens, UniProt Q9H3Y6). Nature of the assay: Inhibition of human SRMS at 50 nM by radiometric scintillation counting analysis relative to control.
The test system of a further assay is RBL-2H3. Nature of the assay: Antiallergic activity against anti-DNP-IgE sensitized rat RBL-2H3 cells assessed as […] of degranulation by measuring beta-hexosaminidase release using P-nitrophenyl-N-acetyl-D-glucosamide as substrate measured after 1 hr by microplate reader. Format: functional, cell-based. The note with it: RBL-2H3, 1 h.
Assay [2] concerns the target T1, Inhibitor of nuclear factor kappa-B kinase subunit alpha (Homo sapiens) (UniProt O15111).
T1 sequence (whole entry): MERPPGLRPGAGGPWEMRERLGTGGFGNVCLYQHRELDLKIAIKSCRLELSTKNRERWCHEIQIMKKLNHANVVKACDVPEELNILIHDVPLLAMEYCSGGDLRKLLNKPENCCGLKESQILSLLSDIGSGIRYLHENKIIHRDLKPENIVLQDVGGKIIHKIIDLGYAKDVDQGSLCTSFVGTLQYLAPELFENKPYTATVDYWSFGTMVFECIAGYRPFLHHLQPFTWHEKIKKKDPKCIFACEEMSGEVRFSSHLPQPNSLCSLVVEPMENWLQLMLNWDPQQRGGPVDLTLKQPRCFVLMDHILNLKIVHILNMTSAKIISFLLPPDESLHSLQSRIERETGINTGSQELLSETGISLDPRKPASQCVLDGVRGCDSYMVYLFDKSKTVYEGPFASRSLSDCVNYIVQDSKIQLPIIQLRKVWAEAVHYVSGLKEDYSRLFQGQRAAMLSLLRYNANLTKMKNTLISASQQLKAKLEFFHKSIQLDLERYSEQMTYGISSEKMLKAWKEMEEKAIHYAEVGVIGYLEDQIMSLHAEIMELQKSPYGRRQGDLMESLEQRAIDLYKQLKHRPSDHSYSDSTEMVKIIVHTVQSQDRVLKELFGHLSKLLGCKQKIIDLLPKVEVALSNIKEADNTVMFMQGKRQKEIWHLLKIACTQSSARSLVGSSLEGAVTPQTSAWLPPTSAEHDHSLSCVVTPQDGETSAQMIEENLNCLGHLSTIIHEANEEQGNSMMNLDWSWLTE
Nature of the assay: Inhibition of human full length recombinant IKKalpha at 500 nM by radiometric scintillation counting analysis relative to control.

The target in assay [3] is T2, Tyrosine-protein kinase ZAP-70 (Homo sapiens) (UniProt P43403).
T2 sequence (whole entry): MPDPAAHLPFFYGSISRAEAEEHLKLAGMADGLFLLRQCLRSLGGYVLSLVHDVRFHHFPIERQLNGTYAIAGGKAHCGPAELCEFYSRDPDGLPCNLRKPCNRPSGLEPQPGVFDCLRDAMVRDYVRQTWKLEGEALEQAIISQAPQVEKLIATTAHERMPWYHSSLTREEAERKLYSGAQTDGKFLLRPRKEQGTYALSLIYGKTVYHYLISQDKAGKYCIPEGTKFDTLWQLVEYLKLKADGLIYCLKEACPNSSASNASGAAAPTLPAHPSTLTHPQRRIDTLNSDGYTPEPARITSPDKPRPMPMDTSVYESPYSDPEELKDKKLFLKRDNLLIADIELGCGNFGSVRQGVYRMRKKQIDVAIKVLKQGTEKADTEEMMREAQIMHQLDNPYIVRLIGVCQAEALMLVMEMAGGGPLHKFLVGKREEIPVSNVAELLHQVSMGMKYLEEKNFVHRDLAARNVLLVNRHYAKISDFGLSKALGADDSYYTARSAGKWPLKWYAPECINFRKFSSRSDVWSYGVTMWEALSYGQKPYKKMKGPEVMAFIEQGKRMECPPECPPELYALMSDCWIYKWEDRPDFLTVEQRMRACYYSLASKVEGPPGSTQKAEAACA
Nature of the assay: Inhibition of human full length recombinant ZAP70 at 500 nM by radiometric scintillation counting analysis relative to control.

Assay [4] addresses Platelet-derived growth factor receptor alpha (Homo sapiens) (UniProt P16234). Nature of the assay: Inhibition of human recombinant PDGFRalpha (550 to end) at 5 nM by radiometric scintillation counting analysis relative to control.
The target of assay [5] is T3, Tyrosine-protein kinase Lck (Homo sapiens, UniProt P06239). Nature of the assay: Inhibition of human full length recombinant LCK at 50 nM by radiometric scintillation counting analysis relative to control.
T3 sequence (P06239 2-509 limits assumed): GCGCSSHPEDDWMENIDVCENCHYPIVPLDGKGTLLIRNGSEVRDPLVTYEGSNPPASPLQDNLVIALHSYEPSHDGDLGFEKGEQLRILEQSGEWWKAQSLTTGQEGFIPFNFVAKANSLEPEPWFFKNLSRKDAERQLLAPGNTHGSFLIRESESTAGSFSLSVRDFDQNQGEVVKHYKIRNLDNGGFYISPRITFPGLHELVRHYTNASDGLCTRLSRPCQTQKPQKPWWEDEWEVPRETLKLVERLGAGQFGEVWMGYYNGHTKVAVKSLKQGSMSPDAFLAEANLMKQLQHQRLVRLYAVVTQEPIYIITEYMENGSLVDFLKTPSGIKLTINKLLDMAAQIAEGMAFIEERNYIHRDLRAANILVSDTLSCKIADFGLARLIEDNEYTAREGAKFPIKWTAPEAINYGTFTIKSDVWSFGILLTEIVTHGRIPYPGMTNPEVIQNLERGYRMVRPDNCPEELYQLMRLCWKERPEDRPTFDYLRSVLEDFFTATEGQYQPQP
Assay [6] concerns the target Tyrosine-protein kinase Fgr (Homo sapiens, UniProt P09769). Nature of the assay: Inhibition of human recombinant FGR (456 to 770) at 5 nM by radiometric scintillation counting analysis relative to control.
Assay [7] addresses Tyrosine-protein kinase Lyn (Homo sapiens, UniProt P07948). Nature of the assay: Inhibition of human full length recombinant LYN at 5 nM by radiometric scintillation counting analysis relative to control.
Assay [8] addresses T4, Tyrosine-protein kinase Blk (Homo sapiens, UniProt P51451). Nature of the assay: Inhibition of human full length recombinant BLK at 5 nM by radiometric scintillation counting analysis relative to control.
The target of assay [9] is Protein-tyrosine kinase 6 (Homo sapiens) (UniProt Q13882). Nature of the assay: Inhibition of human recombinant BRK (174 to 734) at 50 nM by radiometric scintillation counting analysis relative to control.
Sequence of Protein-tyrosine kinase 6 (Homo sapiens) (Q13882 whole entry, looked up): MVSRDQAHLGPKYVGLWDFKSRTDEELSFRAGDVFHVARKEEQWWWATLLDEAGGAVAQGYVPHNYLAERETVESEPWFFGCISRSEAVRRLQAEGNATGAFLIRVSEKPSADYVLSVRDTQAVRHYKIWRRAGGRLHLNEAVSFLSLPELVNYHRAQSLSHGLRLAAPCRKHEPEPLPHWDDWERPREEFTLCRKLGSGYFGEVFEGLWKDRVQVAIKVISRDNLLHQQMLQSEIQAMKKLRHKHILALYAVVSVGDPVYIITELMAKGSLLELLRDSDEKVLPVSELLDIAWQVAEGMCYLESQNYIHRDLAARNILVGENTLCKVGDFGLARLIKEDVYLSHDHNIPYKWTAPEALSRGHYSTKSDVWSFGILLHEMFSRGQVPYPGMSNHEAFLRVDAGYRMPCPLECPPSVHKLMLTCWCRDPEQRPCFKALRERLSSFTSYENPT
The target of assay [10] is T5, Tyrosine-protein kinase TXK (Homo sapiens) (UniProt P42681).
T5 sequence (whole entry): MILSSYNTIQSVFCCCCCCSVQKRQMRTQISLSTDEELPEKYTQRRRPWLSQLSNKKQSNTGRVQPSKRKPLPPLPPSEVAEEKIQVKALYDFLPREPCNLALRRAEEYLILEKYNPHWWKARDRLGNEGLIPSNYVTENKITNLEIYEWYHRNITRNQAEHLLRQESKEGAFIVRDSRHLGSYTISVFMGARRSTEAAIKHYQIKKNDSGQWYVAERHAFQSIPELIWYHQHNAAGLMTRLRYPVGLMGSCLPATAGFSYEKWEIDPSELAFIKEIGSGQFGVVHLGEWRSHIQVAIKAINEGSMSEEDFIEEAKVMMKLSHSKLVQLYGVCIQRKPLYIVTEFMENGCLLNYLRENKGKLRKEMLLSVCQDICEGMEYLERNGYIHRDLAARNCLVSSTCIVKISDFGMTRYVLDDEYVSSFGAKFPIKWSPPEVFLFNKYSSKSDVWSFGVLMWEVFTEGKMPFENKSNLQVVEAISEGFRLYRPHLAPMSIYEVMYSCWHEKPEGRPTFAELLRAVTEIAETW
Nature of the assay: Inhibition of human recombinant […] (256 to end) at 5 nM by radiometric scintillation counting analysis relative to control.

In assay [11] the target is Protein-tyrosine kinase 6 (Homo sapiens) (UniProt Q13882). Nature of the assay: Inhibition of human recombinant BRK (174 to 734) at 5 nM by radiometric scintillation counting analysis relative to control.
The target in assay [12] is T3, Tyrosine-protein kinase Lck. Nature of the assay: Inhibition of human full length recombinant LCK at 500 nM by radiometric scintillation counting analysis relative to control.
Assay [13] addresses T5, Tyrosine-protein kinase TXK (Homo sapiens). Nature of the assay: Inhibition of human recombinant […] (256 to end) at 50 nM by radiometric scintillation counting analysis relative to control.
The target of assay [14] is T4, Tyrosine-protein kinase Blk. Nature of the assay: Inhibition of human full length recombinant BLK at 500 nM by radiometric scintillation counting analysis relative to control.
Assay [15] deals with Tyrosine-protein kinase Fyn (Homo sapiens, UniProt P06241). Nature of the assay: Inhibition of human recombinant Fyn (218 to end) at 5 nM incubated for 15 mins relative to control.
Sequence of Tyrosine-protein kinase Fyn (P06241 2-537 limits assumed): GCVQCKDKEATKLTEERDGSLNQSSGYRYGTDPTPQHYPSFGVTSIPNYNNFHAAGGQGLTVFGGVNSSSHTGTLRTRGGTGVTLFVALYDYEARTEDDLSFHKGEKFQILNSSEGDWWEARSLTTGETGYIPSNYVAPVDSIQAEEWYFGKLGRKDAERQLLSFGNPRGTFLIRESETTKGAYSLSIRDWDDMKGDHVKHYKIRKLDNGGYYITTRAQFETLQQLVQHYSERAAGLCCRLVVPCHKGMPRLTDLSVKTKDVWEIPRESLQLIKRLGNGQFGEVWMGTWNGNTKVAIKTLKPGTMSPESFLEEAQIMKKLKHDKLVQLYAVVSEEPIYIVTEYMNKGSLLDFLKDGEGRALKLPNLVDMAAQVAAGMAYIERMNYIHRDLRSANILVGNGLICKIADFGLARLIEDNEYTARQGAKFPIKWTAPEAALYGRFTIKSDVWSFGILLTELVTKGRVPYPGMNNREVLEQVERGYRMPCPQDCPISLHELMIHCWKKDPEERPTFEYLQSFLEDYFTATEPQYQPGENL

Structures are written as SMILES.

Sequence of Tyrosine-protein kinase Lyn (P07948 2-512 limits assumed): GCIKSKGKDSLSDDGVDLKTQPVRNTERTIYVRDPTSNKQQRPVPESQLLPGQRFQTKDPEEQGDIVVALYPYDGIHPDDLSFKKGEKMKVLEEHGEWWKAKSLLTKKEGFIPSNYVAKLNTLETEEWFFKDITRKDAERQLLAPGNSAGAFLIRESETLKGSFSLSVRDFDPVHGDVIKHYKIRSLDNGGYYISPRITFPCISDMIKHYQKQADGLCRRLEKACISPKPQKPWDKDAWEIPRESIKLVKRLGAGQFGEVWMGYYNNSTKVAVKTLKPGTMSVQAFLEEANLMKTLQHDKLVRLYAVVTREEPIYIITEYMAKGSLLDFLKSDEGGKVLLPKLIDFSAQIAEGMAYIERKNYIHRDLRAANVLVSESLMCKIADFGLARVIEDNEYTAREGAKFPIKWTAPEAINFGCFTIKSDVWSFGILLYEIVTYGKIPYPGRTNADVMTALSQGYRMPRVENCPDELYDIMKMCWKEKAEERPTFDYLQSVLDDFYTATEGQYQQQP
T4 sequence (P51451 2-505 limits assumed): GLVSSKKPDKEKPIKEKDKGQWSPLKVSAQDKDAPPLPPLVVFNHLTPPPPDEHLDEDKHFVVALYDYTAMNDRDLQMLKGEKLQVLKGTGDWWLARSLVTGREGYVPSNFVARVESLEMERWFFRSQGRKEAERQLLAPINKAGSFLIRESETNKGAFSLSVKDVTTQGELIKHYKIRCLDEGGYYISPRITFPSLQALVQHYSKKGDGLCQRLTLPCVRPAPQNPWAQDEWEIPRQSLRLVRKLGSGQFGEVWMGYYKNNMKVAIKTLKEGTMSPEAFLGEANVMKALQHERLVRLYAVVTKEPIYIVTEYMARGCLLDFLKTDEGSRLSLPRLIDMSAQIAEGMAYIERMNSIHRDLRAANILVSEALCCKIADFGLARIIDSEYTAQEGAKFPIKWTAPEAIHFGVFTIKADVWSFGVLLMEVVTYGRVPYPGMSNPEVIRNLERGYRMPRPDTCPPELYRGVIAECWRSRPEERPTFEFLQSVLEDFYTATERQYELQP
Sequence of Tyrosine-protein kinase Srms (Q9H3Y6 whole entry): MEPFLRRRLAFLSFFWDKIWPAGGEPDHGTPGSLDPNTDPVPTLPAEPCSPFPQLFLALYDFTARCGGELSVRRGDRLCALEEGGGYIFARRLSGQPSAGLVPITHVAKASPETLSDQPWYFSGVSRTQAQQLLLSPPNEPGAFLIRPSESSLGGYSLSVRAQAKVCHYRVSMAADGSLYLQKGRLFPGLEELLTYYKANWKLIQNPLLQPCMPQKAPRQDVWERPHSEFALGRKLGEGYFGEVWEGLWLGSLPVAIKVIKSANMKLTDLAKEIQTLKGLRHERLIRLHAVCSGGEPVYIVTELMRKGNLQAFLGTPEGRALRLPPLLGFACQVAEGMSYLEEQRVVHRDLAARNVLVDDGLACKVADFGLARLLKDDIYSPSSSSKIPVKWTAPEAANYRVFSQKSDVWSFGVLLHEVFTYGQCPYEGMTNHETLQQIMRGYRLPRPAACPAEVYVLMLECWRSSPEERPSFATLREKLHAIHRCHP
Sequence of Platelet-derived growth factor receptor alpha (Homo sapiens) (P16234 whole entry): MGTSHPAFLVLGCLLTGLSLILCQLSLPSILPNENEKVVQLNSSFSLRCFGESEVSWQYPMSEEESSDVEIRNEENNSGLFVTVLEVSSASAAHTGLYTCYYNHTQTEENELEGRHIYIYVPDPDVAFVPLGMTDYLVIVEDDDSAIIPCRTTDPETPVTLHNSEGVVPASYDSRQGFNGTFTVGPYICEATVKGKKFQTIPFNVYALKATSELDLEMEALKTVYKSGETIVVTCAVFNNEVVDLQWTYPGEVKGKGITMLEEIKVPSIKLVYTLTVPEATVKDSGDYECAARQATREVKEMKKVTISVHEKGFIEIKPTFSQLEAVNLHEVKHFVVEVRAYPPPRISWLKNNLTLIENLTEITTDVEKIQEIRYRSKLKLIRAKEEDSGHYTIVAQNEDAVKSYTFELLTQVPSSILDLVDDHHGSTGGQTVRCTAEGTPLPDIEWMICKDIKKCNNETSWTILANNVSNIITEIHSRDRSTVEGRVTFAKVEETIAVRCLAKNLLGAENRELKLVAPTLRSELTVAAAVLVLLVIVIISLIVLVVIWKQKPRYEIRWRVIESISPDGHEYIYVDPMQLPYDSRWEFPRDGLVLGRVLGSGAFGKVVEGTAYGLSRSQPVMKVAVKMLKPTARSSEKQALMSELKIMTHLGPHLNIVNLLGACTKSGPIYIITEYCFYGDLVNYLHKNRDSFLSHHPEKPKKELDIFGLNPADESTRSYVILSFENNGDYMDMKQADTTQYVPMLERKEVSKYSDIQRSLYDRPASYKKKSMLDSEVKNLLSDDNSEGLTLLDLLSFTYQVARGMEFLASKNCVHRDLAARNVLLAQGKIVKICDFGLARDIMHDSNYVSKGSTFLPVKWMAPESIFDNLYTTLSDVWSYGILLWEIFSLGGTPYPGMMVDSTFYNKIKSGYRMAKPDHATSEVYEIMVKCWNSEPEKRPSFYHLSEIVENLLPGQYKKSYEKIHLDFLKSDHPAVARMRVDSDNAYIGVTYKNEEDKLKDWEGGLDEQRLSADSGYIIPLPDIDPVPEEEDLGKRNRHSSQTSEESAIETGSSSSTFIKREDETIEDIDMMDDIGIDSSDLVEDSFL
Sequence of Tyrosine-protein kinase Fgr (P09769 2-529 limits assumed): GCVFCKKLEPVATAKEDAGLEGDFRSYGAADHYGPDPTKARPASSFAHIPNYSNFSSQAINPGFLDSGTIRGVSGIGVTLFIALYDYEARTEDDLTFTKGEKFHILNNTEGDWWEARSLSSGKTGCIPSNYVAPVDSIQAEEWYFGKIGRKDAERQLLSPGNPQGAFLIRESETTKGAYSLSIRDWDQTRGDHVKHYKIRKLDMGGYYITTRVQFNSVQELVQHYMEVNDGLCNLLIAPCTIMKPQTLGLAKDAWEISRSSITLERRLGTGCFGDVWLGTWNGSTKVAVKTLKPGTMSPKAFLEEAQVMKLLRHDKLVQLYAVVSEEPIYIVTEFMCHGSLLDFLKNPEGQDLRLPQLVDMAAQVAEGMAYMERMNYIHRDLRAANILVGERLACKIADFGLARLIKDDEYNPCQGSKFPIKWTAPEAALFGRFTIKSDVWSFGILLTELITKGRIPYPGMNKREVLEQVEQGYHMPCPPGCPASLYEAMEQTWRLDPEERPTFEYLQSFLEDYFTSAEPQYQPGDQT

In general, inhibition refers to the drop in the measured response relative to a control, in per cent. For orientation: IC50 means the concentration at which inhibition is half-maximal. Regarding `Cc1ccc(C(=O)Nc2cc(C(F)(F)F)cc(C(F)(F)F)c2)cc1C#Cc1cc(-c2cnn(C)c2)cnc1N`, the inhibition in assay [1] is 51%; in [2], 12%; in [3], -1%; in assay [4], 1%; in assay [5], 60%; in assay [6], 27%. In addition, the inhibition is 41% in [7]; 22% in assay [8]; 1% in [9]; 17% in assay [10]; -2% in [11]; 77% in [12]. Moreover, the figures for the inhibition in [13], in [14] and in [15] were 60%, 98% and 29%, respectively. Also, in the assay with RBL-2H3, the IC50 was determined as 9.32 nM.

As to `Cc1ccc(C(=O)Nc2ccc(Cl)cc2Cl)cc1C#Cc1cc(-c2cnn(C)c2)cnc1N`, the inhibition is 19% in [1]; 2% in assay [2]; 20% in assay [3]; -6% in [4]; 59% in assay [5]; 4% in [6]. Also, the inhibition came to 19% in [7]; 7% in assay [8]; 39% in assay [9]; 2% in assay [10]; 9% in [11]; 92% in assay [12]. In addition, the inhibition came out at 5% in assay [13], 50% in [14] and 2% in assay [15]. Also, the IC50 in the assay with RBL-2H3 was above 1000 nM.

Regarding `Cc1ccc(C(=O)Nc2ccc(OC(F)(F)F)cc2)cc1C#Cc1cc(-c2cnn(C)c2)cnc1N`, the inhibition in assay [1] was 22%; in assay [2], 0%; in assay [3], -4%; in [4], 7%; in [5] it was 98%; in assay [6] it was 9%. Further, the inhibition in assay [7] worked out at 96%; in [8], 21%; in assay [9] it was 52%; in assay [10], 12%; in assay [11] it was 17%; in [12], 98%. For the same compound, the inhibition in [13] was determined as 18%; in [14], 99%; in assay [15], 21%. Besides, the IC50 with RBL-2H3 was found to be 3.71 nM.
